Reference: PubChem BioAssay (NCI)
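48-hour exposure; five concentrations; linearly interpolated endpoints. TGI denotes the concentration required for complete inhibition of growth.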

What was measured:
Assay in all cases: NCI-60 cell line screen, 48 h
786-0 renal = test system: 786-0 renal
A498 renal = test system: A498 renal
A549 NSCLC = test system: A549 NSCLC
ACHN renal = test system: ACHN renal
BT-549 breast = test system: BT-549 breast
CAKI-1 renal = test system: CAKI-1 renal
CCRF-CEM leukemia = test system: CCRF-CEM leukemia
COLO 205 colon = test system: COLO 205 colon
EKVX NSCLC = test system: EKVX NSCLC
HCC-2998 colon = test system: HCC-2998 colon
HCT-116 colon = test system: HCT-116 colon
HCT-15 colon = test system: HCT-15 colon
HL-60(TB) leukemia = test system: HL-60(TB) leukemia
HOP-62 NSCLC = test system: HOP-62 NSCLC
HOP-92 NSCLC = test system: HOP-92 NSCLC
HS 578T breast = test system: HS 578T breast
HT29 colon = test system: HT29 colon
IGROV1 ovarian = test system: IGROV1 ovarian
K-562 leukemia = test system: K-562 leukemia
KM12 colon = test system: KM12 colon
LOX IMVI melanoma = test system: LOX IMVI melanoma
M14 melanoma = test system: M14 melanoma
MALME-3M melanoma = test system: MALME-3M melanoma
MCF7 breast = test system: MCF7 breast
MDA-MB-231 breast = test system: MDA-MB-231 breast
MDA-MB-435 = test system: MDA-MB-435
MDA-N = test system: MDA-N
MOLT-4 leukemia = test system: MOLT-4 leukemia
NCI-H226 lung = test system: NCI-H226 lung
NCI-H23 lung = test system: NCI-H23 lung
NCI-H460 lung = test system: NCI-H460 lung
NCI/ADR-RES ovarian = test system: NCI/ADR-RES ovarian
OVCAR-3 ovarian = test system: OVCAR-3 ovarian
OVCAR-4 ovarian = test system: OVCAR-4 ovarian
OVCAR-5 ovarian = test system: OVCAR-5 ovarian
OVCAR-8 ovarian = test system: OVCAR-8 ovarian
PC-3 prostate = test system: PC-3 prostate
RXF 393 renal = test system: RXF 393 renal
SF-295 CNS = test system: SF-295 CNS
SF-539 CNS = test system: SF-539 CNS
SK-MEL-2 melanoma = test system: SK-MEL-2 melanoma
SK-MEL-28 melanoma = test system: SK-MEL-28 melanoma
SK-MEL-5 melanoma = test system: SK-MEL-5 melanoma
SK-OV-3 ovarian = test system: SK-OV-3 ovarian
SN12C renal = test system: SN12C renal
SNB-19 CNS = test system: SNB-19 CNS
SNB-75 CNS = test system: SNB-75 CNS
SR leukemia = test system: SR leukemia
SW-620 colon = test system: SW-620 colon
TK-10 renal = test system: TK-10 renal
U251 CNS = test system: U251 CNS
UACC-257 melanoma = test system: UACC-257 melanoma
UACC-62 melanoma = test system: UACC-62 melanoma
UO-31 renal = test system: UO-31 renal
DU-145 prostate = test system: DU-145 prostate
NCI-H522 lung = test system: NCI-H522 lung
RPMI-8226 leukemia = test system: RPMI-8226 leukemia
SF-268 CNS = test system: SF-268 CNS
T-47D breast = test system: T-47D breast

O=C1Nc2c(Cl)cc(Cl)cc2C1=O
TGI (786-0 renal): 39.5 µM
TGI (A498 renal): 53.4 µM
TGI (A549 NSCLC): 35.9 µM
TGI (ACHN renal): > 100 µM
TGI (BT-549 breast): 35.1 µM
TGI (CAKI-1 renal): 35.4 µM
TGI (CCRF-CEM leukemia): 72.9 µM
TGI (COLO 205 colon): 50.8 µM
TGI (EKVX NSCLC): 29.6 µM
TGI (HCC-2998 colon): 83.4 µM
TGI (HCT-116 colon): 40.5 µM
TGI (HCT-15 colon): 47.5 µM
TGI (HL-60(TB) leukemia): 26.7 µM
TGI (HOP-62 NSCLC): 40.4 µM
TGI (HOP-92 NSCLC): 57.5 µM
TGI (HS 578T breast): 37.6 µM
TGI (HT29 colon): > 100 µM
TGI (IGROV1 ovarian): 50.3 µM
TGI (K-562 leukemia): > 100 µM
TGI (KM12 colon): > 100 µM
TGI (LOX IMVI melanoma): 35.5 µM
TGI (M14 melanoma): 38.6 µM
TGI (MALME-3M melanoma): 7.88 µM
TGI (MCF7 breast): 39.6 µM
TGI (MDA-MB-231 breast): 45.9 µM
TGI (MDA-MB-435): 15.2 µM
TGI (MDA-N): 21.8 µM
TGI (MOLT-4 leukemia): 48.6 µM
TGI (NCI-H226 lung): 46.6 µM
TGI (NCI-H23 lung): 48.7 µM
TGI (NCI-H460 lung): 47.6 µM
TGI (NCI/ADR-RES ovarian): 54.5 µM
TGI (OVCAR-3 ovarian): 52.5 µM
TGI (OVCAR-4 ovarian): 33.1 µM
TGI (OVCAR-5 ovarian): 40.7 µM
TGI (OVCAR-8 ovarian): 55.8 µM
TGI (PC-3 prostate): > 100 µM
TGI (RXF 393 renal): 28.2 µM
TGI (SF-295 CNS): 31.8 µM
TGI (SF-539 CNS): 34.4 µM
TGI (SK-MEL-2 melanoma): 29.7 µM
TGI (SK-MEL-28 melanoma): 35.4 µM
TGI (SK-MEL-5 melanoma): 28.8 µM
TGI (SK-OV-3 ovarian): > 100 µM
TGI (SN12C renal): 32.2 µM
TGI (SNB-19 CNS): > 100 µM
TGI (SNB-75 CNS): 28.6 µM
TGI (SR leukemia): 39.4 µM
TGI (SW-620 colon): 41.5 µM
TGI (TK-10 renal): > 100 µM
TGI (U251 CNS): 55.2 µM
TGI (UACC-257 melanoma): 35.1 µM
TGI (UACC-62 melanoma): 30.2 µM
TGI (UO-31 renal): 44.9 µM

O=C(NC(O)(C(F)(F)F)C(F)(F)F)c1ccccc1
TGI (786-0 renal): > 100 µM
TGI (A498 renal): > 100 µM
TGI (A549 NSCLC): > 100 µM
TGI (ACHN renal): > 100 µM
TGI (CAKI-1 renal): > 100 µM
TGI (CCRF-CEM leukemia): > 100 µM
TGI (COLO 205 colon): > 100 µM
TGI (DU-145 prostate): > 100 µM
TGI (EKVX NSCLC): > 100 µM
TGI (HCC-2998 colon): > 100 µM
TGI (HCT-116 colon): > 100 µM
TGI (HCT-15 colon): > 100 µM
TGI (HL-60(TB) leukemia): > 100 µM
TGI (HOP-62 NSCLC): > 100 µM
TGI (HOP-92 NSCLC): > 100 µM
TGI (HS 578T breast): > 100 µM
TGI (HT29 colon): > 100 µM
TGI (IGROV1 ovarian): > 100 µM
TGI (K-562 leukemia): > 100 µM
TGI (KM12 colon): > 100 µM
TGI (LOX IMVI melanoma): > 100 µM
TGI (M14 melanoma): > 100 µM
TGI (MALME-3M melanoma): > 100 µM
TGI (MCF7 breast): > 100 µM
TGI (MDA-MB-231 breast): > 100 µM
TGI (MDA-MB-435): > 100 µM
TGI (MDA-N): > 100 µM
TGI (MOLT-4 leukemia): > 100 µM
TGI (NCI-H226 lung): > 100 µM
TGI (NCI-H23 lung): > 100 µM
TGI (NCI-H460 lung): > 100 µM
TGI (NCI-H522 lung): > 100 µM
TGI (NCI/ADR-RES ovarian): > 100 µM
TGI (OVCAR-3 ovarian): > 100 µM
TGI (OVCAR-4 ovarian): > 100 µM
TGI (OVCAR-5 ovarian): > 100 µM
TGI (OVCAR-8 ovarian): > 100 µM
TGI (PC-3 prostate): > 100 µM
TGI (RPMI-8226 leukemia): > 100 µM
TGI (RXF 393 renal): > 100 µM
TGI (SF-268 CNS): > 100 µM
TGI (SF-295 CNS): > 100 µM
TGI (SF-539 CNS): > 100 µM
TGI (SK-MEL-2 melanoma): > 100 µM
TGI (SK-MEL-28 melanoma): > 100 µM
TGI (SK-MEL-5 melanoma): > 100 µM
TGI (SK-OV-3 ovarian): > 100 µM
TGI (SN12C renal): > 100 µM
TGI (SNB-19 CNS): > 100 µM
TGI (SNB-75 CNS): > 100 µM
TGI (SR leukemia): > 100 µM
TGI (SW-620 colon): > 100 µM
TGI (T-47D breast): > 100 µM
TGI (TK-10 renal): > 100 µM
TGI (U251 CNS): > 100 µM
TGI (UACC-257 melanoma): > 100 µM
TGI (UO-31 renal): > 100 µM

O=C1OCC2=C1C(c1ccc3c(c1)OCO3)c1cc3c(cc1O2)OCO3 (centres undefined)
TGI (786-0 renal): > 30.1 µM
TGI (A498 renal): 42.8 µM
TGI (A549 NSCLC): > 100 µM
TGI (ACHN renal): > 100 µM
TGI (CAKI-1 renal): > 100 µM
TGI (CCRF-CEM leukemia): > 30.7 µM
TGI (COLO 205 colon): 15.2 µM
TGI (DU-145 prostate): > 58.8 µM
TGI (EKVX NSCLC): > 100 µM
TGI (HCC-2998 colon): 59.3 µM
TGI (HCT-116 colon): 41.5 µM
TGI (HCT-15 colon): > 79.1 µM
TGI (HL-60(TB) leukemia): 0.365 µM
TGI (HOP-62 NSCLC): > 100 µM
TGI (HOP-92 NSCLC): > 100 µM
TGI (HS 578T breast): 20.8 µM
TGI (HT29 colon): 3.54 µM
TGI (IGROV1 ovarian): > 100 µM
TGI (K-562 leukemia): 28.8 µM
TGI (KM12 colon): > 100 µM
TGI (LOX IMVI melanoma): > 100 µM
TGI (M14 melanoma): 11.4 µM
TGI (MALME-3M melanoma): > 100 µM
TGI (MCF7 breast): > 100 µM
TGI (MDA-MB-231 breast): > 100 µM
TGI (MDA-MB-435): 0.323 µM
TGI (MDA-N): 0.368 µM
TGI (MOLT-4 leukemia): > 49.1 µM
TGI (NCI-H226 lung): > 100 µM
TGI (NCI-H23 lung): > 100 µM
TGI (NCI-H460 lung): > 100 µM
TGI (NCI-H522 lung): 0.533 µM
TGI (NCI/ADR-RES ovarian): 2.03 µM
TGI (OVCAR-3 ovarian): > 21.3 µM
TGI (OVCAR-4 ovarian): > 100 µM
TGI (OVCAR-5 ovarian): > 100 µM
TGI (OVCAR-8 ovarian): 68.1 µM
TGI (PC-3 prostate): > 63.7 µM
TGI (RPMI-8226 leukemia): 10.5 µM
TGI (RXF 393 renal): 7.6 µM
TGI (SF-268 CNS): > 100 µM
TGI (SF-295 CNS): > 72.2 µM
TGI (SF-539 CNS): 2.81 µM
TGI (SK-MEL-2 melanoma): > 100 µM
TGI (SK-MEL-28 melanoma): > 59.1 µM
TGI (SK-MEL-5 melanoma): > 100 µM
TGI (SK-OV-3 ovarian): > 85.2 µM
TGI (SN12C renal): > 100 µM
TGI (SNB-19 CNS): > 27.2 µM
TGI (SNB-75 CNS): 11.9 µM
TGI (SR leukemia): 5.19 µM
TGI (SW-620 colon): > 100 µM
TGI (T-47D breast): > 100 µM
TGI (TK-10 renal): > 100 µM
TGI (U251 CNS): > 100 µM
TGI (UACC-257 melanoma): > 100 µM
TGI (UACC-62 melanoma): > 72.6 µM
TGI (UO-31 renal): > 85.6 µM
